Here are results for one molecule from patent US5965539A, “Inhibitors of prenyl transferases” (Univeristy of Pittsburgh, priority 1996, dated 1999).

For this assay, the system named is Calu-1 human lung carcinoma. The settings on record: 50 mg/kg once daily. The text has this: Calu-1 (Panel A) and NCI-H810 cells (Panel B) were purchased from ATCC and grown in McCoy's 5A medium in 10% FBS (Fetal Bovine Serum) and RPMI 1640 in 10% FBS, respectively. The cells were harvested, resuspended in PBS and injected s.c. into the right and left flank of 8 week old female nude mice (10^7 cells/flank). Nude mice (Harlan Sprague Dawley, Indianapolis, Ind.) were maintained in accordance with the Institutional Animal Care and Use Committee (IACUC) procedures and guidelines. On day 32 after s.c. implantation of tumors, animals were dosed i.p. with 0.2 ml once daily for 36 days. […] The tumor volumes were determined by measuring the length (l) and the width (w) and calculating the volume (V=(l)×(w)^2 /2). Data are presented as the average volume of eight tumors in each group for each cell line. Statistical significance between control and treated groups were evaluated by using student t test (*P<0.05).
In this model, tumors from two human lung carcinoma cell lines are implanted subcutaneously. One of these (Calu-1) harbors a K-Ras oncogenic mutation and has a deletion of the tumor suppressor gene p53. The other human lung carcinoma ([…]) has no Ras mutations.

For `COC(=O)[C@H](CCSC)NC(=O)c1ccc(NC[C@@H](N)CS)cc1-c1ccccc1` [FTI-277, 4-N-[2(R)-Amino-3-mercaptopropyl]amino-2-phenylbenzoyl methionine methyl ester], the “tumor growth of Calu-1” value is recorded as “inhibited the growth of Calu-I cells to the same extent”.
